Assay results as given in patent US20230126204A1, “[1,3]DIAZINO[5,4-d]PYRIMIDINES AS HER2 INHIBITORS” (Boehringer Ingelheim International GmbH, priority 2020, published 2023).

How the values were obtained:
Format in all cases: cell-based
[1] = tested on: NCI-H2170 (HER2 wild type) cells; assay: Tumor cell proliferation assay NCI-H2170 (HER2 wild type); conditions: Homo sapiens, 72 h, CellTiter-Glo, read-out: GI50 NCI H-2170 HER2 wt amp.
Procedure: (§1) For proliferation assays, NCI-H2170 (HER2 wild type), NCI-H2170 HER2 YVMA and EGFR WT dependent A431 cells were used. NCI-H2170 HER2 YVMA or NCI-H2170 cells were seeded into 96-well plates at 750 cells/60 μL in growth media (RPMI ATCC+10% FBS, +Penicillin/Streptomycin). […] Compounds were added by using a HP D3000 Digital Dispenser one day after plating the cells. All treatments were performed in technical triplicates. Treated cells were incubated for 72 h at 37° C. with 5% CO2. CellTiter-Glo® Luminescent Cell Viability Assay (Promega) was performed and chemoluminescence was measured by using the multilabel Plate Reader VICTOR X4. The raw data were imported into and analyzed with the Boehringer Ingelheim proprietary software MegaLab (curve fitting based on the program PRISM, GraphPad Inc.).

[2] = molecular target: T1, EGFR wild type (WT) (Homo sapiens, UniProt P00533); assay: pEGFR assay (AlphaScreen Surefire, HEK cells); conditions: HEK cells expressing EGFR WT, phosphorylation at Tyr1068, 4 h
T1 construct: expressed in transfected cells; host or cells: human HEK cells (ATCC CRL-1573), retroviral transduction, puromycin selection
T1 sequence (P00533 25-1210): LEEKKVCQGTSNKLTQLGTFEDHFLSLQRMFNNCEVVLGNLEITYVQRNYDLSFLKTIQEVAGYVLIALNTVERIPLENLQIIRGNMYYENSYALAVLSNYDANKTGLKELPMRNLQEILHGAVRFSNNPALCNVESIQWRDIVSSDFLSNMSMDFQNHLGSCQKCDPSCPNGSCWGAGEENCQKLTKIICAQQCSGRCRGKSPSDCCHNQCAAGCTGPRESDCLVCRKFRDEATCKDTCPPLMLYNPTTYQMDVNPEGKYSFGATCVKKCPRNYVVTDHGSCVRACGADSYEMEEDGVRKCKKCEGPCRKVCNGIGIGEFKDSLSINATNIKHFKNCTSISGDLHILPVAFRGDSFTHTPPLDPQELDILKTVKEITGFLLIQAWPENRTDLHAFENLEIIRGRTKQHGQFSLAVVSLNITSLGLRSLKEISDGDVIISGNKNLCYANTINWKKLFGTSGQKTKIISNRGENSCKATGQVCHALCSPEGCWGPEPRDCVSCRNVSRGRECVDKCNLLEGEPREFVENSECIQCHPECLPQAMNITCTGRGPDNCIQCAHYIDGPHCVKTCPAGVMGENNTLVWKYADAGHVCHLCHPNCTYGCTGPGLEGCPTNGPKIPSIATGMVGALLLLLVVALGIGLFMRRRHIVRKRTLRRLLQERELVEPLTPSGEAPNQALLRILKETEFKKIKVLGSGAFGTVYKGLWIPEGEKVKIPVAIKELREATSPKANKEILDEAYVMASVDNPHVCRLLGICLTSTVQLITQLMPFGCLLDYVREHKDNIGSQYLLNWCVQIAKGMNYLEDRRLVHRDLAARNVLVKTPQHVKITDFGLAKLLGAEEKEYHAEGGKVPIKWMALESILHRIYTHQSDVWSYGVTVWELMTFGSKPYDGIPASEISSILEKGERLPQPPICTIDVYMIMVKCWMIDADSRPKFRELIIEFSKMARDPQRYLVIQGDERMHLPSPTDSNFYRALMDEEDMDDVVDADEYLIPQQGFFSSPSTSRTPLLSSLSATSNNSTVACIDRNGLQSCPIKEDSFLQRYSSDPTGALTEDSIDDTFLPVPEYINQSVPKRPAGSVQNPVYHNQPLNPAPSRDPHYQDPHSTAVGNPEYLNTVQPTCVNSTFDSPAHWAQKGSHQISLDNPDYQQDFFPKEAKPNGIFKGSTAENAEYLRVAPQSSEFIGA
Procedure: This assay quantifies the phosphorylation of EGFR at Tyr1068 and was used to measure the inhibitory effect of compounds on the transgenic EGFR wild type (WT) protein expressed in HEK cells.
Transduced cells were selected using puromycin. p-EGFR Tyr1068 was determined using the AlphaScreen Surefire pEGF Receptor (Tyr1068) Assay (PerkinElmer, TGRERS). For the assay, HEK EGFR WT cells were seeded in MEM medium with 10% FBS. […] Subsequently, 60.000 cells/well in 60 μL were added. Cells were incubated with compounds for 4 h at 37° C. […] The mixture was incubated at a temperature of 20-25° C. with shaking (700 rpm) for 20 min. After centrifugation, 4 μL of the lysate were transferred to Proxiplates. […] Plates were shaken for 1 min (1400 rpm) and incubated for 2 h at a temperature of 20-25° C. in the dark.
This cellular phospho-EGFR (pEGFR) compound dose-response assay quantifies the phosphorylation of EGFR at Tyr1068 in HEK cells expressing EGFR WT. The results of the assay are provided as IC50 values.

[3] = molecular target: T2, HER2 YVMA (Homo sapiens, UniProt P04626, INS775YVMA); assay: pHER2 (ERBB2) YVMA assay (AlphaScreen Surefire, HEK cells); conditions: HEK cells expressing HER2 YVMA, phosphorylation at Tyr1221/1222, 4 h
T2 construct: expressed in transfected cells; host or cells: human HEK cells, retroviral transduction, puromycin selection, doxycycline-inducible expression
T2 sequence (P04626 with tags, fused parts or gaps INS775YVMA): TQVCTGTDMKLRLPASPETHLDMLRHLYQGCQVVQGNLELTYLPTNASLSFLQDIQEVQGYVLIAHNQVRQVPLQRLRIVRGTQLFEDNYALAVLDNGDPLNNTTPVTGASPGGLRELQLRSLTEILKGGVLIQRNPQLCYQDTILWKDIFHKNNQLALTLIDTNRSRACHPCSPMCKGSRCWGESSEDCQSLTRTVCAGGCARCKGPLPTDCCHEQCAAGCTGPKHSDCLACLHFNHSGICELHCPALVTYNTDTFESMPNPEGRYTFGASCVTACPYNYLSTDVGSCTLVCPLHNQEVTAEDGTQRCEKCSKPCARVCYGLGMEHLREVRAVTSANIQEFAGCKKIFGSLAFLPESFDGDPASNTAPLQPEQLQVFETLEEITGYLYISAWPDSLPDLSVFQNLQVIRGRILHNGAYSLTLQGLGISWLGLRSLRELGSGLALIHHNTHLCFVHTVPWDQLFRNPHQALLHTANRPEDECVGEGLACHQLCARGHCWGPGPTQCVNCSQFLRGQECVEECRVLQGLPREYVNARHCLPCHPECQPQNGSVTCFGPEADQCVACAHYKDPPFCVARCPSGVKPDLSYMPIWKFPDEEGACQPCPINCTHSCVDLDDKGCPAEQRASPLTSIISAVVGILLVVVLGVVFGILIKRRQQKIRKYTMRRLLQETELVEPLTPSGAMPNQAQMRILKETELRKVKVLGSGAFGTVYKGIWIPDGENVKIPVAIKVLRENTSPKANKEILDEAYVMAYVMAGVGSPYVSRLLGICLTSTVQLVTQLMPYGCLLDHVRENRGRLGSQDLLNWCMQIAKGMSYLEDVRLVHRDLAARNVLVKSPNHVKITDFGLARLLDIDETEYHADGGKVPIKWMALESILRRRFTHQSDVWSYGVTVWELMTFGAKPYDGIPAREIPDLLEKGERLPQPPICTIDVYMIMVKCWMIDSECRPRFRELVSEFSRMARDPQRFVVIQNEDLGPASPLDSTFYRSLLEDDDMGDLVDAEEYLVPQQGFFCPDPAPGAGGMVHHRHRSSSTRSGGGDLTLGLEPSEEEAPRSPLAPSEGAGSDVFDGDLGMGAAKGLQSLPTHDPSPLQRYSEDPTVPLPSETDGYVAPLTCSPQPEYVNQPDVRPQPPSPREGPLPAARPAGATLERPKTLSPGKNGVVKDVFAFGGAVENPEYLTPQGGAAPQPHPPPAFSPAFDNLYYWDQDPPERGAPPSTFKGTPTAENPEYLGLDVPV
Procedure: For the assay, HEK HER2 YVMA cells were seeded in MEM medium with 10% FBS. 4 hours prior to compound addition, HER2 YVMA expression was induced using 1 μg/ml Doxycycline. […] Subsequently, 60.000 cells/well in 60 μL were added. Cells were incubated with compounds for 4 h at 37° C. […] The mixture was incubated at a temperature of 20-25° C. with shaking (700 rpm) for 20 min. After centrifugation, 4 μL of the lysate were transferred to Proxiplates. […] Plates were shaken for 1 min (1400 rpm) and incubated for 2 h at a temperature of 20-25° C. in the dark.
The results of the assay are provided as IC50 values.

[4] = tested on: Ba/F3 cells HER2 mutants (YVMA); assay: Ba/F3 proliferation assay HER2 YVMA; conditions: Mus musculus, BaF3; 72 h, CellTiter-Glo
Procedure: (§2) Ba/F3 cell model generation and proliferation assays
(§3) Plasmids containing HER2 mutants and EGFR WT were obtained from GeneScript. To generate EGFR/HER2-dependent Ba/F3 models, Ba/F3 cells were transduced with retroviruses containing vectors that harbor EGFR WT, HER2 WT or HER2 mutants (YVMA). Platinum-E cells (Cell Biolabs) were used for retrovirus packaging. Retrovirus was added to Ba/F3 cells. To ensure infection, 4 μg/mL polybrene was added and cells were spinfected. Infection efficiency was confirmed by measuring GFP-positive cells using a cell analyzer. Cells with an infection efficiency of 10% to 20% were further cultivated and puromycin selection with 1 μg/mL was initiated. As a control, parental Ba/F3 cells were used to assess the selection status. Selection was considered successful when parental Ba/F3 cells cultures died. To evaluate the transforming potential of HER2 mutations, the growth medium was no longer supplemented with IL-3. Ba/F3 cells harboring the empty vector were used as a control. A switch from IL-3 to EGF was performed for Ba/F3 cells with the EGFR WT known for its dependency on EGF ligand. Approximately ten days before conducting the experiments, puromycin was left out. For proliferation assays (data in table 12 and 14), Ba/F3 cells were seeded into 96-well plates at 5×10^3 cells/100 μL in growth media. Compounds were added by using a HP D3000 Digital Dispenser. All treatments were performed in technical triplicates. Treated cells were incubated for 72 h at 37° C. with 5% CO2. CellTiter-Glo® Luminescent Cell Viability Assay (Promega) was performed and chemoluminescence was measured by using the multilabel Plate Reader VICTOR X4. The raw data were imported into and analyzed with the Boehringer Ingelheim proprietary software MegaLab (curve fitting based on the program PRISM, GraphPad Inc.).

[5] = tested on: Ba/F3 cells HER2 WT; assay: Ba/F3 proliferation assay HER2 WT; conditions: Mus musculus, BaF3; 72 h, CellTiter-Glo
Procedure: as §2, §3

[6] = tested on: NCI-H2170 HER2 YVMA cells; assay: Tumor cell proliferation assay NCI-H2170 HER2 YVMA; conditions: Homo sapiens, 72 h, CellTiter-Glo, read-out: GI50 NCI H-2170 HER2 YVMA
Description: HER2 YVMA tumor cell line model generation and proliferation assays
Homology-directed genome engineering was employed to insert a 12 nucleotide sequence encoding YVMA into Exon 20 of the genomic HER2 locus in NCI-H2170 cells. […] The DNA template containing the HER2 exon 20 YVMA insertion variant was obtained from GenScript. PCR followed by Sanger sequencing was used to confirm the presence of the 12-nucleotide insertion in HER2 Exon 20 resulting in the YVMA amino acid duplication.
as §1

[7] = tested on: Ba/F3 cells EGFR WT; assay: Ba/F3 proliferation assay EGFR WT (EGF dependent); conditions: Mus musculus, BaF3, EGF instead of IL-3, 72 h, CellTiter-Glo, read-out: GI50 BAF3 EGF dep.
Procedure: as §2, §3

[8] = tested on: EGFR WT dependent A431 cells; assay: Tumor cell proliferation assay A431 (EGFR WT dependent); conditions: Homo sapiens, A-431; 72 h, CellTiter-Glo; read-out: GI50 A431 EGFR wt amp.
Procedure: as §1

- IC50 [2]: 873 nM
- IC50 [3]: 27 nM
- GI50 [4]: 48 nM
- GI50 [5]: 7 nM
- GI50 [7]: 1180 nM
- GI50 [8]: 4810 nM
Structure (SMILES): C=CC(=O)N1CCN(c2ncc3ncnc(Nc4ccc(Oc5ccc6c(c5)ncn6C)cc4F)c3n2)CC1 [Compound I-12]
- GI50 [1]: 45 nM
- GI50 [6]: 167 nM
